The test system of data set [1] is blue-stain fungi and molds. The experiment in a line: Activity against blue-stain fungi and molds in a stick test (threshold concentrations). The settings on record: beech sticks, 22° C., 90% relative humidity. The gist of the method: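 Wood sticks soaked 3 h in compound serially diluted in 50% ethanol, dried, then inoculated with fungal or spore suspension. Incubated at 22° C and 90% relative humidity until untreated controls grew, then growth scored 0 (none) to 4 (>50% surface covered).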

The test system of data set [2] is molds and blue-stain fungi. The experiment in a line: In vitro activity against molds and blue-stain fungi, poison plate assay (MIC). In kind it is cell-based. The settings on record: malt extract agar, complete inhibition. As for the experimental part: The effect of the representative compounds on the growth of certain molds and blue-strain fungi were determined using a poison plate assay according to the following procedure: The solutions of the representative compounds prepared above were further diluted with sterile water to desired concentrations and poured into Petri dishes. Malt extract agar medium was then added aseptically to the Petri dishes and to Petri dishes containing no compound (controls). The Petri dishes were then shaken to provide a uniform distribution of the agar medium. Each Petri dish containing compound and each control Petri dish, was then inoculated with a fungus and incubated for a period of time sufficient to permit complete growth of the fungus in the respective control Petri dish. The Petri dishes containing compound were then examined to determine the amount of inhibition of fungi for each concentration of compound tested.

Converted amounts (≈) assume the structure as drawn. Like-named read-outs stand apart in the source and are kept apart here. Where only a bound is given, the exact number is not on record here.

As a reminder, the MIC is the lowest concentration that inhibits growth of the organism. For orientation: melting point means the temperature of the solid-liquid transition.

With `O=S1(=O)CCON=C1c1ccc(Cl)s1` [Compound 61, 3-(5-chloro-2-thienyl)-5,6-dihydro-1,4,2-oxathiazine-4,4-dioxide], the melting point was 113 to 114 °C. Besides, the “Threshold concentration (ppm), A. niger, score 0” value in data set [1] (A. niger, minimum concentration to obtain score 0) is reported as under 250 ppm. Also, the “Threshold concentration (ppm), A. niger, score 1-2” value in data set [1] (A. niger, minimum concentration to obtain score 1-2) is under 250 ppm. Further, in data set [1] (Aureobasidium, minimum concentration to obtain score 0), the “Threshold concentration (ppm), Aureobasidium, score 0” value was over 1000 ppm. Also, the “Threshold concentration (ppm), Aureobasidium, score 1-2” value in data set [1] (Aureobasidium, minimum concentration to obtain score 1-2) is given as 250-500 ppm. For the same compound, the “Threshold concentration (ppm), Sclerophoma, score 0” value in data set [1] (Sclerophoma, minimum concentration to obtain score 0) is listed as 100 ppm. Moreover, the “Threshold concentration (ppm), Sclerophoma, score 1-2” value in data set [1] (Sclerophoma, minimum concentration to obtain score 1-2) was under 50 ppm. In data set [1] (Trichoderma, minimum concentration to obtain score 0), the “Threshold concentration (ppm), Trichoderma, score 0” value is on record as 2500 ppm. In addition, the “Threshold concentration (ppm), Trichoderma, score 1-2” value in data set [1] (Trichoderma, minimum concentration to obtain score 1-2) was 1000-2500 ppm. In addition, in data set [2] (A. amstelodami, read-out: MIC (ppm) against A. amstelodami), the MIC is 5 µg/mL (≈ 19.9 µM). Also, the MIC in data set [2] (Aspergillus niger, A. niger, read-out: MIC (ppm) against A. niger) is under 1 µg/mL. Further, the MIC in data set [2] (Aspergillus versicolor, A. versicolor, read-out: MIC (ppm) against A. versicolor) came to 2.5 µg/mL (≈ 9.93 µM). In data set [2] (Aureobasidium pullulans, A. pullulans, read-out: MIC (ppm) against A. pullulans), the MIC came out at 10 µg/mL (≈ 39.7 µM). Moreover, the MIC in data set [2] (C. pilifera, read-out: MIC (ppm) against C. pilifera) turned out to be 2.5 µg/mL (≈ 9.93 µM). The MIC in data set [2] (Cladosporium cladosporioides, C. cladosporioides, read-out: MIC (ppm) against C. cladosporioides) came out at 10 µg/mL (≈ 39.7 µM). In addition, in data set [2] (Fusarium solani, F. solani, read-out: MIC (ppm) against F. solani), the MIC came out at 5 µg/mL (≈ 19.9 µM). Besides, the MIC in data set [2] (Geotrichum candidum, G. candidum, read-out: MIC (ppm) against G. candidum) is 10 µg/mL (≈ 39.7 µM). For the same compound, in data set [2] (P. purpurogenum, read-out: MIC (ppm) against P. purpurogenum), the MIC is 5 µg/mL (≈ 19.9 µM). The MIC in data set [2] (P. violacea, read-out: MIC (ppm) against P. violacea) amounted to 25 µg/mL (≈ 99.3 µM). Besides, the MIC in data set [2] (Paecilomyces variotii, P. variotii, read-out: MIC (ppm) against P. variotii) was determined as 5 µg/mL (≈ 19.9 µM). Further, the MIC in data set [2] (S. atra, read-out: MIC (ppm) against S. atra) is 2.5 µg/mL (≈ 9.93 µM). Moreover, the MIC in data set [2] (S. entoxylina, read-out: MIC (ppm) against S. entoxylina) worked out at 10 µg/mL (≈ 39.7 µM). Besides, the MIC in data set [2] (Trichoderma viride, T. viride, read-out: MIC (ppm) against T. viride) was 10 µg/mL (≈ 39.7 µM). Moreover, the MIC in data set [2] (U. atrum, read-out: MIC (ppm) against U. atrum) is 10 µg/mL (≈ 39.7 µM).

The values are drawn from patent US6372297B1, “Wood preservative oxathiazines” (Uniroyal Chemical Company, Inc., priority 1993, dated 2002).
